From PubChem BioAssay (NCI)
“And” between values parts separate entries of the source, which are not always exact repeats. Equal values may be shown once.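 Five concentrations, 48 hours, 96-well plates. At the GI50, growth is halved. TGI: concentration producing complete growth inhibition.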

Key:
Assay in all cases: DTP human tumour cell line panel, 48 h
ACHN renal = system: ACHN renal
SN12C renal = system: SN12C renal
A498 renal = system: A498 renal
IGROV1 ovarian = system: IGROV1 ovarian
SW-620 colon = system: SW-620 colon
HOP-62 NSCLC = system: HOP-62 NSCLC
SNB-75 CNS = system: SNB-75 CNS
TK-10 renal = system: TK-10 renal
SR leukemia = system: SR leukemia
HT29 colon = system: HT29 colon

Row | Structure (SMILES) | TGI (ACHN renal) | TGI (SN12C renal) | TGI (A498 renal) | TGI (IGROV1 ovarian) | TGI (SW-620 colon) | TGI (HOP-62 NSCLC) | TGI (SNB-75 CNS) | TGI (TK-10 renal) | TGI (SR leukemia) | TGI (HT29 colon) | GI50 (ACHN renal) | GI50 (SN12C renal) | GI50 (A498 renal) | GI50 (IGROV1 ovarian) | GI50 (SW-620 colon) | GI50 (HOP-62 NSCLC) | GI50 (SNB-75 CNS) | GI50 (TK-10 renal) | GI50 (SR leukemia) | GI50 (HT29 colon)
1 | Cc1ccc(N(C=O)c2c([N+](=O)[O-])cc([N+](=O)[O-])c3c2=[N+]([O-])CN=3)cc1 | 64 µM | > 100 µM | > 100 µM | > 100 µM | > 100 µM | > 100 µM | 95.2 µM | 78.7 µM | > 100 µM | > 100 µM | – | – | – | – | – | – | – | – | – | –
2 | O=C(Oc1ccccc1)N(c1ccccc1)c1ccccc1 | > 100 µM | > 100 µM | 62.7 µM | > 100 µM | > 100 µM | > 100 µM | 52.5 µM | > 100 µM | > 100 µM | > 100 µM | 28.8 µM | 27.7 µM | 10.4 µM | 38.1 µM | 38.8 µM | 32.2 µM | 19.6 µM | 37.1 µM | 29 µM | 36.9 µM
3 | CCCCC(=O)N(c1ccc(Nc2c3ccccc3nc3cc([N+](=O)[O-])ccc23)cc1)S(C)(=O)=O | > 88.7 µM | > 100 µM | 13.1 µM | > 45.8 µM | 31 µM | 52.5 µM | 64.8 µM | > 84 µM | > 42.6 µM | 60.3 µM | 3.85 µM | 4.86 µM | 1.71 µM | 6.86 µM | 5.73 µM | 4.52 µM | 4.7 µM | 7.61 µM | 1.97 µM | 13.6 µM
4 | O=C1C=C(NCCO)c2nccc3c2c1nc1ccccc13 | > 100 µM | > 100 µM | > 100 µM | > 100 µM | > 100 µM | 57.8 µM | > 100 µM | 60.8 µM | > 100 µM | > 100 µM | 16.3 µM | 18.2 µM | 38.2 µM | 20.4 µM | 15.5 µM | 12.3 µM | 49.7 µM | 18.7 µM | 6.76 µM | 26.9 µM
5 | C[C@]12CC[C@H](O[C@@H]3O[C@H](CO[C@@H]4O[C@H](CO)[C@@H](O)[C@H](O)[C@H]4O)[C@@H](O)[C@H](O)[C@H]3O)C[C@@H]1CC[C@@H]1[C@@H]2CC[C@]2(C)[C@@H](C3=CC(=O)OC3)CC[C@]12O | > 100 µM | 65.3 µM | 70 µM | 56.3 µM | > 100 µM | 31.1 µM | > 84.7 µM | > 51.6 µM | > 100 µM | > 100 µM | – | – | – | – | – | – | – | – | – | –
6 | COC(=O)C1=CC2C(=O)OC1C1C(=O)NC(=O)C21 (configuration not stated) | > 100 µM | > 100 µM | > 100 µM | > 100 µM | > 100 µM | > 100 µM | > 100 µM | > 100 µM | > 100 µM | > 100 µM | – | – | – | – | – | – | – | – | – | –
7 | N#C/C(=C\c1cc(O)c(O)c(O)c1)C(N)=O | > 100 µM | > 100 µM | > 100 µM | > 100 µM | > 100 µM | > 100 µM | > 100 µM | > 100 µM | > 92.3 µM | > 100 µM | – | – | – | – | – | – | – | – | – | –
8 | Cc1cc(O)ccc1C1=NN(c2ccc(S(N)(=O)=O)cc2)C(=O)CC1 | 50 µM and > 100 µM | 50 µM and > 100 µM | 50 µM and > 100 µM | 50 µM and > 100 µM | 50 µM and > 100 µM | 46 µM and 86.9 µM | 21.5 µM and 82.9 µM | > 50 µM and 52.7 µM | 50 µM and 6.78 µM | 50 µM and > 100 µM | 19.3 µM and 38.3 µM | 6.68 µM and 42.6 µM | 9.08 µM and 77.2 µM | 6.75 µM and 9.07 µM | 2.34 µM and 8.64 µM | 12.8 µM and 25 µM | 2.95 µM and 16.3 µM | > 50 µM and 15.9 µM | 1.05 µM and 1.12 µM | 2.52 µM and 4.65 µM
9 | COc1cccc2c1C(=O)c1c(O)c3c(c(O)c1C2=O)C[C@@](O)(C(=O)CO)CC3OC1CC(N)C(OC2CCCCO2)C(C)O1 (some centres not stated) | 0.029 µM | – | 1.16 µM | – | 1.03 µM and 7.04 µM | – | – | – | – | 1.81 µM and 17.1 µM | – | 0.0157 µM | – | 0.0158 µM | 0.113 µM | 0.0029 µM | 0.0171 µM | 0.0368 µM | < 0.001 µM | 0.0381 µM
10 | CCOC(=O)C1=C(C)NC(=O)NC1c1ccc(OC)cc1OC (configuration not stated) | > 100 µM | > 100 µM | > 100 µM | > 100 µM | > 100 µM | > 100 µM | > 100 µM | > 100 µM | > 100 µM | > 100 µM | – | – | – | – | – | – | – | – | – | –
11 | CC(=Nc1ccc(N(C)C)cc1)c1ccccc1 | 77.1 µM | 32.1 µM | > 100 µM | 75.3 µM | 39.7 µM | > 100 µM | 77.4 µM | 40.1 µM | 49.9 µM | 73.4 µM | – | – | – | – | – | – | – | – | – | –
12 | CN(C)c1ccc(/C=C(\C#N)c2cc3ccccc3[nH]2)cc1 | > 100 µM | > 100 µM | 6.61 µM | > 100 µM | 61.9 µM | 4.54 µM | 4.59 µM | > 100 µM | > 100 µM | 15.9 µM | 2.42 µM | 2.37 µM | 0.391 µM | 1.6 µM | 0.39 µM | 1.16 µM | 1.31 µM | 2.66 µM | 0.497 µM | 0.375 µM
13 | CCN1CCN(c2nc(C)cc(NCc3cc(Nc4ccnc5cc(Cl)ccc45)ccc3F)n2)CC1 | 7.4 µM | 6.41 µM | 4.01 µM | 7.27 µM | 4.81 µM | 4.57 µM | 3.52 µM | 6.04 µM | 5.89 µM | 6.17 µM | 2.47 µM | 1.94 µM | 1.94 µM | 2.2 µM | 1.78 µM | 1.58 µM | 1.37 µM | 2.39 µM | 1.3 µM | 1.96 µM
14 | Oc1ccc2c(=S)cc(-c3ccc(Br)cc3)oc2c1O | 11.8 µM | 12.3 µM | 7.46 µM | 9.96 µM | 21.6 µM | 6.73 µM | > 100 µM | 14.7 µM | 38.1 µM | 25.9 µM | 2.35 µM | 2.61 µM | 2.15 µM | 2.56 µM | 2.6 µM | 1.5 µM | 4.56 µM | 4.16 µM | 2.54 µM | 4.56 µM
15 | c1ccc(C2=NOC3C4CCC(C4)C23)cc1 (configuration not stated) | > 100 µM | > 100 µM | > 100 µM | > 100 µM | > 100 µM | > 100 µM | > 100 µM | > 100 µM | > 100 µM | > 100 µM | – | – | – | – | – | – | – | – | – | –
16 | O=C(NC1CC1)c1c(O)[nH]c(=S)[nH]c1=O | > 100 µM | > 100 µM | > 100 µM | > 100 µM | > 100 µM | > 100 µM | > 100 µM | > 100 µM | > 100 µM | > 100 µM | – | – | – | – | – | – | – | – | – | –
